Measured values published in patent publication US10160755B2 (Plexxikon Inc., priority 2015, dated 2018).

Experiments:
FLT3-ITD = target: T1, FLT3-ITD (Homo sapiens, UniProt P36888); test: FLT3-ITD biochemical kinase assay (AlphaScreen)
T1 construct: FLT3-ITD; Invitrogen #PV6190
T1 sequence (P36888 1-993): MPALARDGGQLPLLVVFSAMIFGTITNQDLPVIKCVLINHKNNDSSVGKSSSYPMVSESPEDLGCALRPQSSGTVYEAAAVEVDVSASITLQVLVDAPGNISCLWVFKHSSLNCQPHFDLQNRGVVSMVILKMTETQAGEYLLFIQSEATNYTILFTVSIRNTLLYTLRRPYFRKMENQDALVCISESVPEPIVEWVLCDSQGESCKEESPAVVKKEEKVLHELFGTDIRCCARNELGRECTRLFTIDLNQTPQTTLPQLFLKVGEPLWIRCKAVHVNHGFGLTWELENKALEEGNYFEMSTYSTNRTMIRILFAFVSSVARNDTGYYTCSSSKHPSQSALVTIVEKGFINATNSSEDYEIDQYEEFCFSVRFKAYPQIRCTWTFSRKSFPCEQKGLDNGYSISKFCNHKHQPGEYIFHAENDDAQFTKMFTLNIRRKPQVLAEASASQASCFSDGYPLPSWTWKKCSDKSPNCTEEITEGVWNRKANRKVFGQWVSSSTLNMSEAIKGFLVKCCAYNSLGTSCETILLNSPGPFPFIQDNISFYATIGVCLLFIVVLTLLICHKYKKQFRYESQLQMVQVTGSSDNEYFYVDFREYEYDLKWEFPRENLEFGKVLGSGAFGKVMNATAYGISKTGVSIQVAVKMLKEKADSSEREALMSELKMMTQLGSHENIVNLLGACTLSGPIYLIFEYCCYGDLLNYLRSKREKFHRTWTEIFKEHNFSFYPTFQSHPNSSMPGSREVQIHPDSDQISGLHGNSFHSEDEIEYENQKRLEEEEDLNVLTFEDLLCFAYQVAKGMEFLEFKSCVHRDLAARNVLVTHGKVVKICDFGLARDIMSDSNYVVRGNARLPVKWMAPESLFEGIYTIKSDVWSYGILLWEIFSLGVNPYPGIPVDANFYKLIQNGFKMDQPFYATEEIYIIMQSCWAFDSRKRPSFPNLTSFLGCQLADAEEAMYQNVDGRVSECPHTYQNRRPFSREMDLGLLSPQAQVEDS
Summary of the method: (§1)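 AlphaScreen read-out of tyrosine phosphorylation of a 30 nM biotinylated poly(Glu4-Tyr) substrate, captured on streptavidin donor and PY20 acceptor beads at room temperature. ATP for IC50 work was 100 μM with FLT3-ITD and 10 μM with FLT3-D835Y; reduced 580 nm proximity signal reflects kinase inhibition.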

FLT3-D835Y = target: T2, FLT3-D835Y (Homo sapiens, UniProt P36888, D835Y); test: FLT3-D835Y biochemical kinase assay (AlphaScreen)
T2 construct: purchased Invitrogen PV3967
T2 sequence (P36888 27-993 D835Y): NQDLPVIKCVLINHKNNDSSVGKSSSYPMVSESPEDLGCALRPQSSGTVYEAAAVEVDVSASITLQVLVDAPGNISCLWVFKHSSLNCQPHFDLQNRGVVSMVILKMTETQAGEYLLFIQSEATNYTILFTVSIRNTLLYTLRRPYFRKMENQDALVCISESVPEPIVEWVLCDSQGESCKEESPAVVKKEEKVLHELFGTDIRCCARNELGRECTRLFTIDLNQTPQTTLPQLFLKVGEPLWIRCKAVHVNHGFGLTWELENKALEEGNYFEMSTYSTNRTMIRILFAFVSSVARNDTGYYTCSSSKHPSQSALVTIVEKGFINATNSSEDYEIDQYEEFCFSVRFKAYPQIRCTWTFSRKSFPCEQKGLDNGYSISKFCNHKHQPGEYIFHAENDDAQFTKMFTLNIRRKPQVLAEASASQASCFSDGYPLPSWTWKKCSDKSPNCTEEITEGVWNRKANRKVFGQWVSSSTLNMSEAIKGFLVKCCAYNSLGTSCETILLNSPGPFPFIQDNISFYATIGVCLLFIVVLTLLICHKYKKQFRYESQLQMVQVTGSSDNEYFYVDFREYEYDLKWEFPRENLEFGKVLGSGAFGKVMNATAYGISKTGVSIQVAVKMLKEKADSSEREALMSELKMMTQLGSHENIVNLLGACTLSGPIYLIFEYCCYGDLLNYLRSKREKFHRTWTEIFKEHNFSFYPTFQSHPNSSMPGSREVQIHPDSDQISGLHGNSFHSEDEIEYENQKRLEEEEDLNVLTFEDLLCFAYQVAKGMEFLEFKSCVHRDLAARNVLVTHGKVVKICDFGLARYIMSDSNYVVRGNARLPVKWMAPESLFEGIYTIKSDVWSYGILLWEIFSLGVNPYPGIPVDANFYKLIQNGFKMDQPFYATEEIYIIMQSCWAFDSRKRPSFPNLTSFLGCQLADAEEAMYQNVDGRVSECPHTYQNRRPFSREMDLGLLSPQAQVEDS
Summary of the method: as §1

Structure (SMILES)	IC50 (FLT3-ITD) [µM]	IC50 (FLT3-D835Y) [µM]
CC(C)(C)n1cnc2ccc(-c3c[nH]c4ncc(C#Cc5ccccc5)nc34)cc21 [P-142, 7-(3-tert-butylbenzimidazol-5-yl)-2-(2-phenylethynyl)-5H-pyrrolo[2,3-b]pyrazine]	0.0001 to 1	0.0001 to 1
CC(=O)Nc1cccc(-c2cnc3[nH]cc(-c4ccc5ncsc5c4)c3n2)c1 [P-159, N-[3-[7-(1,3-benzothiazol-6-yl)-5H-pyrrolo[2,3-b]pyrazin-2-yl]phenyl]acetamide]	0.0001 to 1	0.0001 to 1
CC(C)S(=O)(=O)Nc1cccc(-c2cnc3[nH]cc(-c4ccc5ncn(C)c5c4)c3n2)c1 [P-152, N-[3-[7-(3-methylbenzimidazol-5-yl)-5H-pyrrolo[2,3-b]pyrazin-2-yl]phenyl]propane-2-sulfonamide]	0.0001 to 1	0.0001 to 1
CC(C)(C)n1cnc2ccc(-c3c[nH]c4ncc(-c5ccc(F)c(C#N)c5)cc34)cc21 [P-207, 5-[3-(3-tert-butylbenzimidazol-5-yl)-1H-pyrrolo[2,3-b]pyridin-5-yl]-2-fluoro-benzonitrile]	0.0001 to 1	0.0001 to 1
CC(C)n1cnc2ccc(-c3c[nH]c4ncc(-c5cccc(NS(C)(=O)=O)c5)nc34)cc21 [P-080, N-[3-[7-(3-isopropylbenzimidazol-5-yl)-5H-pyrrolo[2,3-b]pyrazin-2-yl]phenyl]methanesulfonamide]	0.0001 to 1	0.0001 to 1
Cn1cnc2ccc(-c3c[nH]c4ncc(-c5cccc(C#N)c5)nc34)cc21 [P-146, 3-[7-(3-methylbenzimidazol-5-yl)-5H-pyrrolo[2,3-b]pyrazin-2-yl]benzonitrile]	0.0001 to 1	0.0001 to 1
CC(C)S(=O)(=O)Nc1cccc(-c2cnc3[nH]cc(-c4ccc5ncn(C(C)(C)C)c5c4)c3c2)c1 [P-214, N-[3-[3-(3-tert-butylbenzimidazol-5-yl)-1H-pyrrolo[2,3-b]pyridin-5-yl]phenyl]propane-2-sulfonamide]	0.0001 to 1	0.0001 to 1
COc1cc(-c2cnc3[nH]cc(-c4ccc5ncn(C(C)(C)C)c5c4)c3c2)cc(OC)n1 [P-196, 1-tert-butyl-6-[5-(2,6-dimethoxy-4-pyridyl)-1H-pyrrolo[2,3-b]pyridin-3-yl]benzimidazole]	0.0001 to 1	0.0001 to 1
FC(F)(F)Oc1cccc(-c2cnc3[nH]cc(-c4ccc5ncn(C6CCCNC6)c5c4)c3c2)c1 (stereo not shown) [P-203, 1-(3-piperidyl)-6-[5-[3-(trifluoromethoxy)phenyl]-1H-pyrrolo[2,3-b]pyridin-3-yl]benzimidazole]	0.0001 to 1	0.0001 to 1

Now from value to compound:

IC50 (FLT3-ITD) [µM]	IC50 (FLT3-D835Y) [µM]	Structure (SMILES)
0.0001 to 1	0.0001 to 1	COc1cc(-c2cnc3[nH]cc(-c4ccc5c(c4)N(CC(F)(F)F)CCO5)c3n2)ccn1 [P-188, 6-(2-(2-methoxypyridin-4-yl)-5H-pyrrolo[2,3-b]pyrazin-7-yl)-4-(2,2,2-trifluoroethyl)-3,4-dihydro-2H-benzo[b][1,4]oxazine]
0.0001 to 1	0.0001 to 1	CC(C)(C)n1cnc2ccc(-c3c[nH]c4ncc(-c5cnc(C6CC6)nc5)cc34)cc21 [P-340, 1-tert-butyl-6-[5-(2-cyclopropylpyrimidin-5-yl)-1H-pyrrolo[2,3-b]pyridin-3-yl]benzimidazole]
0.0001 to 1	0.0001 to 1	COc1cc(-c2cnc3[nH]cc(-c4ccc5ncn(CC(F)(F)F)c5c4)c3c2)ccn1 [P-108, 5-(2-methoxy-4-pyridyl)-3-[3-(2,2,2-trifluoroethyl)benzimidazol-5-yl]-1H-pyrrolo[2,3-b]pyridine]
0.0001 to 1	0.0001 to 1	Cn1cnc2ccc(-c3c[nH]c4ncc(-c5cccc(C(=O)NC6CC6)c5)nc34)cc21 [P-147, N-cyclopropyl-3-[7-(3-methylbenzimidazol-5-yl)-5H-pyrrolo[2,3-b]pyrazin-2-yl]benzamide]
0.0001 to 1	0.0001 to 1	CC(C)(C)n1cnc2ccc(-c3c[nH]c4ncc(-c5cccc(OC(F)(F)F)c5)nc34)cc21 [P-191, 7-(3-tert-butylbenzimidazol-5-yl)-2-[3-(trifluoromethoxy)phenyl]-5H-pyrrolo[2,3-b]pyrazine]
0.0001 to 1	0.0001 to 1	CC(C)(C)n1cnc2ccc(-c3c[nH]c4ncc(-c5cnc(NC6CC6)nc5)nc34)cc21 [P-362, 5-[7-(3-tert-butylbenzimidazol-5-yl)-5H-pyrrolo[2,3-b]pyrazin-2-yl]-N-cyclopropyl-pyrimidin-2-amine]
0.0001 to 1	0.0001 to 1	CC(C)(C)n1cnc2ccc(-c3c[nH]c4ncc(-c5cnc(C#N)c(Cl)c5)nc34)cc21 [P-361, 5-[7-(3-tert-butylbenzimidazol-5-yl)-5H-pyrrolo[2,3-b]pyrazin-2-yl]-3-chloro-pyridine-2-carbonitrile]
0.0001 to 1	0.0001 to 1	CC(C)(C)n1cnc2ccc(-c3c[nH]c4ncc(-c5cccc(OC(F)(F)F)c5)cc34)cc21 [P-202, 1-tert-butyl-6-[5-[3-(trifluoromethoxy)phenyl]-1H-pyrrolo[2,3-b]pyridin-3-yl]benzimidazole]
0.0001 to 1	0.0001 to 1	O=C(C1CC1)N1CC=C(c2cnc3[nH]cc(-c4ccc5ncn(C6CCCNC6)c5c4)c3n2)C1 (stereo not shown) [P-137, cyclopropyl-[3-[7-[3-(3-piperidyl)benzimidazol-5-yl]-5H-pyrrolo[2,3-b]pyrazin-2-yl]-2,5-dihydropyrrol-1-yl]methanone]
0.0001 to 1	0.0001 to 1	COc1cnc2[nH]cc(-c3ccc4c(c3)N(C)CCO4)c2c1 [P-107, 6-(5-methoxy-1H-pyrrolo[2,3-b]pyridin-3-yl)-4-methyl-2,3-dihydro-1,4-benzoxazine]
0.0001 to 1	0.0001 to 1	CC(C)(C)n1cnc2ccc(-c3c[nH]c4ncc(-c5ccc(C6CC6)nc5)nc34)cc21 [P-353, 7-(3-tert-butylbenzimidazol-5-yl)-2-(6-cyclopropyl-3-pyridyl)-5H-pyrrolo[2,3-b]pyrazine]
0.0001 to 1	0.0001 to 1	CC(C)(C)n1cnc2ccc(-c3c[nH]c4ncc(-c5ccc(S(=O)(=O)N6CCCC6)cc5)nc34)cc21 [P-239, 7-(3-tert-butylbenzimidazol-5-yl)-2-(4-pyrrolidin-1-ylsulfonylphenyl)-5H-pyrrolo[2,3-b]pyrazine]
0.0001 to 1	0.0001 to 1	Cn1cnc2ccc(-c3c[nH]c4ncc(-c5ccc(F)c(C#N)c5)cc34)cc21 [P-141, 2-fluoro-5-[3-(3-methylbenzimidazol-5-yl)-1H-pyrrolo[2,3-b]pyridin-5-yl]benzonitrile]
0.0001 to 1	0.0001 to 1	O=S(=O)(Nc1cnc2[nH]cc(-c3ccc4ncn(C5CCCNC5)c4c3)c2c1)c1cccc(OC(F)(F)F)c1 (stereo not shown) [P-212, N-[3-[3-(3-piperidyl)benzimidazol-5-yl]-1H-pyrrolo[2,3-b]pyridin-5-yl]-3-(trifluoromethoxy)benzenesulfonamide]
